Source: patent US20150105252A1, “SUBSTITUTED PYRAZOLES AS HERBICIDES” (E I DU PONT DE NEMOURS AND COMPANY, priority 2013, published 2015)

Columns and labels:
[1] = test system: barnyardgrass; assay: Test A preemergence; format: in vivo, Echinochloa crus-galli; settings: preemergence
How it was run: (§1)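 Pre- and postemergence greenhouse test; loam+sand; cpd in non-phytotox. solvent/surfactant; post at 1–2 leaf, 2–10 cm; visual score ~10 d, 0 = none, 100 = complete control.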

[2] = test system: velvetleaf; assay: Test A postemergence; format: in vivo, Abutilon theophrasti
How it was run: as §1

[3] = test system: wheat; assay: Test A postemergence; format: in vivo, Triticum aestivum
How it was run: as §1

[4] = test system: corn; assay: Test A preemergence; format: in vivo, Zea mays; settings: preemergence
How it was run: as §1

[5] = test system: corn; assay: Test A postemergence; format: in vivo, Zea mays
How it was run: as §1

[6] = test system: barnyardgrass; assay: Test B flood; format: in vivo, Echinochloa crus-galli; settings: 250 g ai/ha, visual rating on 0 to 100 scale (0 no effect, 100 complete control), 13 to 15 days
Experimental: (§2) Seeds selected from rice (Oryza sativa), sedge, umbrella (small-flower umbrella sedge Cyperus difformis), ducksalad (Heteranthera limosa), and barnyardgrass (Echinochloa crus-galli) were grown to the 2-leaf stage for testing. At time of treatment, test pots were flooded to 3 cm above the soil surface, treated by application of test compounds directly to the paddy water, and then maintained at that water depth for the duration of the test.
(§3) Treated plants and controls were maintained in a greenhouse for 13 to 15 days, after which time all species were compared to controls and visually evaluated. Plant response ratings, summarized in Table B, are based on a scale of 0 to 100 where 0 is no effect and 100 is complete control. A dash (-) response means no test result.

[7] = test system: foxtail, giant; assay: Test A postemergence; format: in vivo, Setaria faberii
How it was run: as §1

[8] = test system: crabgrass, large; assay: Test A preemergence; format: in vivo, Digitaria sanguinalis; settings: preemergence
How it was run: as §1

[9] = test system: foxtail, giant; assay: Test A preemergence; format: in vivo, Setaria faberii; settings: preemergence
How it was run: as §1

[10] = test system: velvetleaf; assay: Test A preemergence; format: in vivo, Abutilon theophrasti; settings: preemergence
How it was run: as §1

[11] = test system: pigweed; assay: Test A postemergence; format: in vivo, Amaranthus retroflexus
How it was run: as §1

[12] = test system: barnyardgrass; assay: Test A postemergence; format: in vivo, Echinochloa crus-galli
How it was run: as §1

[13] = test system: morningglory; assay: Test A postemergence; format: in vivo, Ipomoea spp.
How it was run: as §1

[14] = test system: ducksalad; assay: Test B flood; format: in vivo, Heteranthera limosa; settings: 250 g ai/ha, visual rating on 0 to 100 scale (0 no effect, 100 complete control), 13 to 15 days
Experimental: as §2, §3

[15] = test system: sedge, umbrella; assay: Test B flood; format: in vivo, Cyperus difformis; settings: 250 g ai/ha, visual rating on 0 to 100 scale (0 no effect, 100 complete control), 13 to 15 days
How it was run: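 2-leaf plants; pots flooded 3 cm over soil; compound added to paddy water, depth kept constant. Greenhouse 13–15 d. Visual rating vs controls, 0–100 scale (100 = complete control); dash = no result.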

[16] = test system: wheat; assay: Test A preemergence; format: in vivo, Triticum aestivum; settings: preemergence
How it was run: as §1

[17] = test system: morningglory; assay: Test A preemergence; format: in vivo, Ipomoea spp.; settings: preemergence
How it was run: as §1

[18] = test system: pigweed; assay: Test A preemergence; format: in vivo, Amaranthus retroflexus; settings: preemergence
How it was run: as §1

[19] = test system: crabgrass, large; assay: Test A postemergence; format: in vivo, Digitaria sanguinalis
How it was run: as §1

[20] = test system: rice; assay: Test B flood; format: in vivo, Oryza sativa; settings: 250 g ai/ha, visual rating on 0 to 100 scale (0 no effect, 100 complete control), 13 to 15 days
Experimental: as §2, §3

[21] = 125 g ai/ha, visual injury, 0 to 100 scale, approx. 10 days
[22] = 500 g ai/ha, visual injury after approx. 10 days, 0 to 100 scale (0 no effect, 100 complete control)
[23] = Postemergence, 500 g ai/ha, visual rating after approx. 10 days, 0 to 100 scale (0 no effect, 100 complete control)
[24] = postemergence, 125 g ai/ha, about 10 days, visual rating on 0 to 100 scale (0 no effect, 100 complete control)
[25] = Postemergence, 125 g ai/ha, 0 to 100 scale, 0 no effect, 100 complete control

| SMILES | Barnyardgrass plant response rating [1, 21] | Barnyardgrass plant response rating [1, 22] | Velvetleaf plant response rating [2, 23] | Velvetleaf plant response rating [2, 24] | Wheat plant response rating [3, 23] | Wheat plant response rating [3, 24] | Corn plant response rating [4, 21] | Corn plant response rating [4, 22] | Corn plant response rating [5, 23] | Corn plant response rating [5, 24] | Plant response rating, Barnyardgrass [6] | Foxtail, Giant plant response rating [7, 23] | Foxtail, Giant plant response rating [7, 24] | Crabgrass, Large plant response rating [8, 21] | Crabgrass, Large plant response rating [8, 22] | Foxtail, Giant plant response rating [9, 21] | Foxtail, Giant plant response rating [9, 22] | Velvetleaf plant response rating [10, 21] | Velvetleaf plant response rating [10, 22] | Pigweed plant response rating [11, 23] | other results |
| --- | --- | --- | --- | --- | --- | --- | --- | --- | --- | --- | --- | --- | --- | --- | --- | --- | --- | --- | --- | --- | --- |
| CCc1cc(C(=O)Nc2ccc(F)cc2)nn1Oc1ccnc(C(F)(F)F)c1 [Compound 89] | 0 | 0 | 0 | 0 | 0 | 0 | 0 | 0 | 20 | 0 | 0 | 0 | 0 | 0 | 10 | 0 | 10 | 0 | 0 | 0 | Pigweed plant response rating [11, 24]: 0; Barnyardgrass plant response rating [12, 25]: 0; Barnyardgrass plant response rating [12, 23]: 0; Morningglory plant response rating [13, 23]: 0; Morningglory plant response rating [13, 24]: 0; Plant response rating, Ducksalad [14]: 0; Plant response rating, Sedge, Umbrella [15]: 0; Wheat plant response rating [16, 21]: 0; Wheat plant response rating [16, 22]: 0; Morningglory plant response rating [17, 21]: 0; Morningglory plant response rating [17, 22]: 0; Pigweed plant response rating [18, 21]: 0; Pigweed plant response rating [18, 22]: 0; Crabgrass, Large plant response rating [19, 23]: 0; Crabgrass, Large plant response rating [19, 24]: 0; Plant response rating, Rice [20]: 0 |
| Cc1cc(C(=O)Nc2ccc(F)cc2)nn1Oc1ccnc(C(F)(F)F)c1 [Compound 90] | 0 | 0 | 0 | 0 | 0 | 0 | 0 | 40 | 30 | 0 | 0 | 0 | 0 | 0 | 20 | 0 | 10 | 0 | 0 | 0 | Pigweed plant response rating [11, 24]: 0; Barnyardgrass plant response rating [12, 25]: 0; Barnyardgrass plant response rating [12, 23]: 0; Morningglory plant response rating [13, 23]: 10; Morningglory plant response rating [13, 24]: 0; Plant response rating, Ducksalad [14]: 0; Plant response rating, Sedge, Umbrella [15]: 0; Wheat plant response rating [16, 21]: 0; Wheat plant response rating [16, 22]: 10; Morningglory plant response rating [17, 21]: 0; Morningglory plant response rating [17, 22]: 10; Pigweed plant response rating [18, 21]: 0; Pigweed plant response rating [18, 22]: 10; Crabgrass, Large plant response rating [19, 23]: 0; Crabgrass, Large plant response rating [19, 24]: 0; Plant response rating, Rice [20]: 0 |
| CCc1cc(C(=O)NC2CC2)nn1Cc1cccc(C(F)(F)F)n1 [Compound 91] | 0 | 0 | 10 | 10 | 0 | 0 | 0 | 0 | 10 | 0 | 0 | 10 | 0 | 0 | 20 | 0 | 0 | 0 | 0 | 40 | Pigweed plant response rating [11, 24]: 20; Barnyardgrass plant response rating [12, 25]: 0; Barnyardgrass plant response rating [12, 23]: 10; Morningglory plant response rating [13, 23]: 20; Morningglory plant response rating [13, 24]: 10; Plant response rating, Ducksalad [14]: 0; Plant response rating, Sedge, Umbrella [15]: 0; Wheat plant response rating [16, 21]: 0; Wheat plant response rating [16, 22]: 0; Morningglory plant response rating [17, 21]: 0; Morningglory plant response rating [17, 22]: 0; Pigweed plant response rating [18, 21]: 0; Pigweed plant response rating [18, 22]: 40; Crabgrass, Large plant response rating [19, 23]: 10; Crabgrass, Large plant response rating [19, 24]: 0; Plant response rating, Rice [20]: 0 |
| CCCc1cc(C(=O)Nc2ccc(F)cc2)nn1Oc1ccnc(C(F)(F)F)c1 [Compound 94] | 0 | 0 | 0 | 0 | 0 | 0 | 0 | 0 | 0 | 0 | 0 | 0 | 0 | 0 | 0 | 0 | 0 | 0 | 0 | 0 | Pigweed plant response rating [11, 24]: 0; Barnyardgrass plant response rating [12, 25]: 0; Barnyardgrass plant response rating [12, 23]: 0; Morningglory plant response rating [13, 23]: 0; Morningglory plant response rating [13, 24]: 0; Plant response rating, Ducksalad [14]: 0; Plant response rating, Sedge, Umbrella [15]: 0; Wheat plant response rating [16, 21]: 0; Wheat plant response rating [16, 22]: 0; Morningglory plant response rating [17, 21]: 0; Morningglory plant response rating [17, 22]: 0; Pigweed plant response rating [18, 21]: 0; Pigweed plant response rating [18, 22]: 0; Crabgrass, Large plant response rating [19, 23]: 0; Crabgrass, Large plant response rating [19, 24]: 0; Plant response rating, Rice [20]: 0 |
| CCc1cc(C(=O)NCC(F)(F)C(F)(F)F)nn1Cc1ccnc(C(F)(F)F)c1 [Compound 102] | 20 | 90 | 50 | 10 | 30 | 0 | 10 | 60 | 50 | 30 | 0 | 90 | 50 | 60 | 100 | 90 | 100 | 0 | 100 | 80 | Pigweed plant response rating [11, 24]: 50; Barnyardgrass plant response rating [12, 23]: 60; Barnyardgrass plant response rating [12, 24]: 20; Morningglory plant response rating [13, 23]: 60; Morningglory plant response rating [13, 24]: 40; Plant response rating, Ducksalad [14]: 50; Plant response rating, Sedge, Umbrella [15]: 50; Wheat plant response rating [16, 21]: 0; Wheat plant response rating [16, 22]: 40; Morningglory plant response rating [17, 21]: 10; Morningglory plant response rating [17, 22]: 50; Pigweed plant response rating [18, 21]: 90; Pigweed plant response rating [18, 22]: 90; Crabgrass, Large plant response rating [19, 23]: 80; Crabgrass, Large plant response rating [19, 24]: 50; Plant response rating, Rice [20]: 0 |
